Source: patent publication US6677310B1, “Ring-expanded nucleosides and nucleotides” (Nabi, priority 1999, dated 2004)

Experiments:
Format in all cases: cell-based, human
SNB-75 = test: SRB anti-cancer assay, CNS Cancer; conditions: SNB-75 (CNS Cancer), 48 h
A549/ATCC = A549/ATCC (Non-Small Cell Lung Cancer), 48 h
NCI/ADR-RES = test: SRB anti-cancer assay, Breast Cancer; conditions: 48 h
HCC-2998 = test: SRB anti-cancer assay, Colon Cancer; conditions: HCC-2998 (Colon Cancer), 48 h
A498 = test: SRB anti-cancer assay, Renal Cancer; conditions: 48 h
NCI-H460 = NCI-H460 (Non-Small Cell Lung Cancer), 48 h
OVCAR-8 = test: SRB anti-cancer assay, Ovarian Cancer; conditions: OVCAR-8 (Ovarian Cancer), 48 h
786-0 = test: SRB anti-cancer assay, Renal Cancer; conditions: 786-0 (Renal Cancer), 48 h
UO-31 = test: SRB anti-cancer assay, Renal Cancer; conditions: UO-31 (Renal Cancer), 48 h
SK-MEL-28 = test: SRB anti-cancer assay, Melanoma; conditions: SK-MEL-28 (Melanoma), 48 h
M14 = test: SRB anti-cancer assay, Melanoma; conditions: 48 h
MALME-3M = test: SRB anti-cancer assay, Melanoma; conditions: MALME-3M (Melanoma), 48 h
SR = test: SRB anti-cancer assay, Leukemia; conditions: 48 h
SF-268 = test: SRB anti-cancer assay, CNS Cancer; conditions: SF-268 (CNS Cancer), 48 h
MDA-N = test: SRB anti-cancer assay, Breast Cancer; conditions: 48 h
SN12C = test: SRB anti-cancer assay, Renal Cancer; conditions: 48 h
HCT-15 = test: SRB anti-cancer assay, Colon Cancer; conditions: HCT-15 (Colon Cancer), 48 h
RPMI-8226 = test: SRB anti-cancer assay, Leukemia; conditions: RPMI-8226 (Leukemia), 48 h
ACHN = test: SRB anti-cancer assay, Renal Cancer; conditions: 48 h
UACC-257 = test: SRB anti-cancer assay, Melanoma; conditions: UACC-257 (Melanoma), 48 h
DU-145 = test: SRB anti-cancer assay, Prostate Cancer; conditions: DU-145 (Prostate Cancer), 48 h
OVCAR-3 = test: SRB anti-cancer assay, Ovarian Cancer; conditions: OVCAR-3 (Ovarian Cancer), 48 h
HOP-62 = HOP-62 (Non-Small Cell Lung Cancer), 48 h
CCRF-CEM = test: SRB anti-cancer assay, Leukemia; conditions: 48 h
SW-620 = test: SRB anti-cancer assay, Colon Cancer; conditions: SW-620 (Colon Cancer), 48 h
CAKI-1 = test: SRB anti-cancer assay, Renal Cancer; conditions: CAKI-1 (Renal Cancer), 48 h
OVCAR-4 = test: SRB anti-cancer assay, Ovarian Cancer; conditions: OVCAR-4 (Ovarian Cancer), 48 h
COLO 205 = test: SRB anti-cancer assay, Colon Cancer; conditions: COLO 205 (Colon Cancer), 48 h
SK-OV-3 = test: SRB anti-cancer assay, Ovarian Cancer; conditions: SK-OV-3 (Ovarian Cancer), 48 h
UACC-62 = test: SRB anti-cancer assay, Melanoma; conditions: UACC-62 (Melanoma), 48 h
[1] = read-out: LC50 (the source's name)

N=c1[nH]c(=O)c2ncn([C@@H]3O[C@H](CO)[C@@H](O)[C@H]3O)c2c(=O)[nH]1 [Compound 14-1, 6-Imino-6H-1-β-D-ribofuranosyl-4,5,7,8-tetrahydroimidazo[4,5-e][1,3]diazepine-4,8-dione]
LC50 (concentration killing 50% of cells) (SNB-75): > 100 µM
TGI (SNB-75): >100 µM
GI50 (A549/ATCC): > 100 µM
TGI (A549/ATCC): >100 µM
CC50 (A549/ATCC; [1]): > 100 µM
GI50 (NCI/ADR-RES): > 100 µM
TGI (NCI/ADR-RES): >100 µM
CC50 (NCI/ADR-RES; [1]): > 100 µM
GI50 (HCC-2998): > 100 µM
TGI (HCC-2998): >100 µM
CC50 (HCC-2998; [1]): > 100 µM
GI50 (A498): > 100 µM
TGI (A498): >100 µM
CC50 (A498; [1]): > 100 µM
GI50 (NCI-H460): > 100 µM
TGI (NCI-H460): >100 µM
CC50 (NCI-H460; [1]): > 100 µM
GI50 (OVCAR-8): > 100 µM
LC50 (50% lethal concentration) (OVCAR-8): > 100 µM
TGI (OVCAR-8): >100 µM
GI50 (786-0): > 100 µM
TGI (786-0): >100 µM
CC50 (786-0; [1]): > 100 µM
GI50 (UO-31): > 100 µM
TGI (UO-31): >100 µM
CC50 (UO-31; [1]): > 100 µM
GI50 (SK-MEL-28): > 100 µM
LC50 (SK-MEL-28): > 100 µM
TGI (SK-MEL-28): >100 µM
GI50 (M14): > 100 µM
TGI (M14): >100 µM
CC50 (M14; [1]): > 100 µM
GI50 (MALME-3M): > 100 µM
LC50 (MALME-3M): > 100 µM
TGI (MALME-3M): >100 µM
GI50 (SR): > 100 µM
LC50 (concentration killing 50% of cells) (SR): > 100 µM
TGI (SR): >100 µM
GI50 (SF-268): > 100 µM
TGI (SF-268): >100 µM
CC50 (SF-268; [1]): > 100 µM
GI50 (MDA-N): > 100 µM
TGI (MDA-N): >100 µM
CC50 (MDA-N; [1]): > 100 µM
GI50 (SN12C): > 100 µM
TGI (SN12C): >100 µM
CC50 (SN12C; [1]): > 100 µM
GI50 (HCT-15): > 100 µM
TGI (HCT-15): >100 µM
CC50 (HCT-15; [1]): > 100 µM
GI50 (RPMI-8226): > 100 µM
TGI (RPMI-8226): >100 µM
CC50 (RPMI-8226; [1]): > 100 µM
GI50 (ACHN): > 100 µM
TGI (ACHN): >100 µM
CC50 (ACHN; [1]): > 100 µM
GI50 (UACC-257): > 100 µM
TGI (UACC-257): >100 µM
CC50 (UACC-257; [1]): > 100 µM
GI50 (DU-145): > 100 µM
TGI (DU-145): >100 µM
CC50 (DU-145; [1]): > 100 µM
GI50 (OVCAR-3): > 100 µM
TGI (OVCAR-3): >100 µM
CC50 (OVCAR-3; [1]): > 100 µM
GI50 (HOP-62): > 100 µM
LC50 (concentration for 50% net cell kill) (HOP-62): > 100 µM
TGI (HOP-62): >100 µM
GI50 (CCRF-CEM): > 100 µM
TGI (CCRF-CEM): >100 µM
CC50 (CCRF-CEM; [1]): > 100 µM
GI50 (SW-620): > 100 µM
TGI (SW-620): >100 µM
CC50 (SW-620; [1]): > 100 µM
GI50 (CAKI-1): > 100 µM
TGI (CAKI-1): >100 µM
CC50 (CAKI-1; [1]): > 100 µM
GI50 (OVCAR-4): > 100 µM
TGI (OVCAR-4): >100 µM
CC50 (OVCAR-4; [1]): > 100 µM
GI50 (COLO 205): > 100 µM
LC50 (COLO 205): > 100 µM
TGI (COLO 205): >100 µM
GI50 (SK-OV-3): > 100 µM
TGI (SK-OV-3): >100 µM
CC50 (SK-OV-3; [1]): > 100 µM
GI50 (UACC-62): > 100 µM
TGI (UACC-62): >100 µM
CC50 (UACC-62; [1]): > 100 µM
